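Five concentrations, 48 hours, 96-well plates. At the GI50, growth is halved. TGI is the concentration that stops growth completely.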
What was measured:
Assay in all cases: inhibition of tumour cell growth, NCI panel, 48 h
CAKI-1 renal = system: CAKI-1 renal
DU-145 prostate = system: DU-145 prostate
HOP-92 NSCLC = system: HOP-92 NSCLC
MDA-MB-231 breast = system: MDA-MB-231 breast
MDA-MB-435 = system: MDA-MB-435
OVCAR-3 ovarian = system: OVCAR-3 ovarian
OVCAR-5 ovarian = system: OVCAR-5 ovarian
SK-OV-3 ovarian = system: SK-OV-3 ovarian
SNB-75 CNS = system: SNB-75 CNS
SR leukemia = system: SR leukemia
UO-31 renal = system: UO-31 renal
786-0 renal = system: 786-0 renal
A549 NSCLC = system: A549 NSCLC
ACHN renal = system: ACHN renal
BT-549 breast = system: BT-549 breast
CCRF-CEM leukemia = system: CCRF-CEM leukemia
COLO 205 colon = system: COLO 205 colon
EKVX NSCLC = system: EKVX NSCLC
HCC-2998 colon = system: HCC-2998 colon
HCT-116 colon = system: HCT-116 colon
HCT-15 colon = system: HCT-15 colon
HL-60(TB) leukemia = system: HL-60(TB) leukemia
HOP-62 NSCLC = system: HOP-62 NSCLC
HS 578T breast = system: HS 578T breast
HT29 colon = system: HT29 colon
IGROV1 ovarian = system: IGROV1 ovarian
K-562 leukemia = system: K-562 leukemia
KM12 colon = system: KM12 colon
LOX IMVI melanoma = system: LOX IMVI melanoma
M14 melanoma = system: M14 melanoma
MALME-3M melanoma = system: MALME-3M melanoma
MCF7 breast = system: MCF7 breast
MOLT-4 leukemia = system: MOLT-4 leukemia
NCI-H226 lung = system: NCI-H226 lung
NCI-H23 lung = system: NCI-H23 lung
NCI-H460 lung = system: NCI-H460 lung
NCI-H522 lung = system: NCI-H522 lung
NCI/ADR-RES ovarian = system: NCI/ADR-RES ovarian
OVCAR-4 ovarian = system: OVCAR-4 ovarian
OVCAR-8 ovarian = system: OVCAR-8 ovarian
PC-3 prostate = system: PC-3 prostate
RPMI-8226 leukemia = system: RPMI-8226 leukemia
RXF 393 renal = system: RXF 393 renal
SF-268 CNS = system: SF-268 CNS
SF-295 CNS = system: SF-295 CNS
SF-539 CNS = system: SF-539 CNS
SK-MEL-2 melanoma = system: SK-MEL-2 melanoma
SK-MEL-5 melanoma = system: SK-MEL-5 melanoma
SN12C renal = system: SN12C renal
SNB-19 CNS = system: SNB-19 CNS
SW-620 colon = system: SW-620 colon
T-47D breast = system: T-47D breast
TK-10 renal = system: TK-10 renal
U251 CNS = system: U251 CNS
UACC-257 melanoma = system: UACC-257 melanoma
UACC-62 melanoma = system: UACC-62 melanoma
SK-MEL-28 melanoma = system: SK-MEL-28 melanoma

## N=C(N)c1ccc(-c2ccc(-c3ccc(Cl)cc3Cl)o2)nc1
CAKI-1 renal
  GI50: 1.52 µM
  TGI: 2.96 µM
DU-145 prostate
  GI50: 1.78 µM
  TGI: 3.21 µM
HOP-92 NSCLC
  GI50: 1.44 µM
  TGI: 2.9 µM
MDA-MB-231 breast
  GI50: 1.64 µM
  TGI: 3.16 µM
MDA-MB-435
  GI50: 1.72 µM
  TGI: 3.1 µM
OVCAR-3 ovarian
  GI50: 1.81 µM
  TGI: 3.23 µM
OVCAR-5 ovarian
  GI50: 1.64 µM
  TGI: 3.05 µM
SK-OV-3 ovarian
  GI50: 1.77 µM
  TGI: 3.52 µM
SNB-75 CNS
  GI50: 1.46 µM
  TGI: 2.78 µM
SR leukemia
  GI50: 0.311 µM
  TGI: 1.43 µM
UO-31 renal
  GI50: 1.56 µM
  TGI: 2.92 µM

## CC[C@H](NC(=O)[C@H]1CCCCN1C)C(=O)N(C)[C@H](C[C@@H](OC(C)=O)c1nc(C(=O)N[C@@H](Cc2ccccc2)C[C@H](C)C(=O)O)cs1)C(C)C
786-0 renal
  GI50: 0.00868 µM
  TGI: > 14.3 µM
A549 NSCLC
  GI50: 0.0109 µM
  TGI: > 14.3 µM
ACHN renal
  GI50: 0.0142 µM
  TGI: > 14.3 µM
BT-549 breast
  GI50: 0.00631 µM
  TGI: 0.473 µM
CAKI-1 renal
  GI50: 0.00602 µM
  TGI: > 14.3 µM
CCRF-CEM leukemia
  GI50: 0.00383 µM
  TGI: > 14.3 µM
COLO 205 colon
  GI50: 0.00396 µM
  TGI: 0.0499 µM
DU-145 prostate
  GI50: 0.00425 µM
  TGI: > 4.64 µM
EKVX NSCLC
  GI50: 0.01 µM
  TGI: > 14.3 µM
HCC-2998 colon
  GI50: 0.0112 µM
  TGI: > 14.3 µM
HCT-116 colon
  GI50: 0.00366 µM
  TGI: > 14.3 µM
HCT-15 colon
  GI50: 0.00933 µM
  TGI: > 14.3 µM
HL-60(TB) leukemia
  GI50: 0.00433 µM
  TGI: 0.019 µM
HOP-62 NSCLC
  GI50: 0.00673 µM
  TGI: > 14.3 µM
HOP-92 NSCLC
  GI50: 0.00585 µM
  TGI: > 6.56 µM
HS 578T breast
  GI50: 0.00643 µM
  TGI: > 14.3 µM
HT29 colon
  GI50: 0.00388 µM
  TGI: > 14.3 µM
IGROV1 ovarian
  GI50: 0.0145 µM
  TGI: > 14.3 µM
K-562 leukemia
  GI50: 0.00209 µM
  TGI: > 14.3 µM
KM12 colon
  GI50: 0.00192 µM
  TGI: > 14.3 µM
LOX IMVI melanoma
  GI50: 0.0103 µM
  TGI: > 14.3 µM
M14 melanoma
  GI50: 0.00244 µM
  TGI: 0.00969 µM
MALME-3M melanoma
  GI50: 0.00538 µM
  TGI: > 14.3 µM
MCF7 breast
  GI50: < 0.00143 µM
  TGI: > 14.3 µM
MDA-MB-231 breast
  GI50: 0.008 µM
  TGI: > 14.3 µM
MDA-MB-435
  GI50: < 0.00143 µM
  TGI: 0.00391 µM
MOLT-4 leukemia
  GI50: 0.0106 µM
  TGI: > 14.3 µM
NCI-H226 lung
  TGI: > 7.57 µM
NCI-H23 lung
  GI50: 0.0073 µM
  TGI: > 14.3 µM
NCI-H460 lung
  GI50: 0.00436 µM
  TGI: > 14.3 µM
NCI-H522 lung
  GI50: 0.00284 µM
  TGI: 0.337 µM
NCI/ADR-RES ovarian
  GI50: 0.0785 µM
  TGI: > 14.3 µM
OVCAR-3 ovarian
  GI50: < 0.00143 µM
  TGI: 0.0286 µM
OVCAR-4 ovarian
  GI50: 0.0326 µM
  TGI: > 14.3 µM
OVCAR-5 ovarian
  GI50: 0.0288 µM
  TGI: > 14.3 µM
OVCAR-8 ovarian
  GI50: 0.0166 µM
  TGI: > 14.3 µM
PC-3 prostate
  GI50: 0.00472 µM
  TGI: > 14.3 µM
RPMI-8226 leukemia
  GI50: 0.00531 µM
  TGI: > 14.3 µM
RXF 393 renal
  GI50: 0.00391 µM
  TGI: > 14.3 µM
SF-268 CNS
  GI50: < 0.03 µM
  TGI: > 14.3 µM
SF-295 CNS
  GI50: 0.00456 µM
  TGI: > 6.44 µM
SF-539 CNS
  GI50: 0.0035 µM
  TGI: 0.0265 µM
SK-MEL-2 melanoma
  GI50: 0.00145 µM
  TGI: > 14.3 µM
SK-MEL-5 melanoma
  GI50: < 0.00143 µM
  TGI: 0.101 µM
SK-OV-3 ovarian
  GI50: 0.00383 µM
  TGI: > 14.3 µM
SN12C renal
  GI50: 0.00993 µM
  TGI: > 14.3 µM
SNB-19 CNS
  GI50: 0.00568 µM
  TGI: > 14.3 µM
SNB-75 CNS
  GI50: 0.00528 µM
  TGI: > 14.3 µM
SR leukemia
  GI50: 0.00183 µM
  TGI: > 14.3 µM
SW-620 colon
  GI50: 0.00398 µM
  TGI: > 14.3 µM
T-47D breast
  GI50: 0.0058 µM
  TGI: > 14.3 µM
TK-10 renal
  TGI: > 14.3 µM
U251 CNS
  GI50: 0.0047 µM
  TGI: > 14.3 µM
UACC-257 melanoma
  GI50: > 14.3 µM
  TGI: > 14.3 µM
UACC-62 melanoma
  GI50: 0.00161 µM
  TGI: > 14.3 µM
UO-31 renal
  GI50: 0.0741 µM
  TGI: > 14.3 µM

## CCOC(=O)C1=C(C)N=c2s/c(=C\c3ccccc3O)c(=O)n2C1c1ccc(OC)c2ccccc12 (configuration not stated)
786-0 renal
  GI50: 2.59 µM
  TGI: 10.3 µM
A549 NSCLC
  GI50: 3.88 µM
  TGI: 16.7 µM
ACHN renal
  GI50: 3.03 µM
  TGI: 8.87 µM
BT-549 breast
  GI50: 14.6 µM
  TGI: > 100 µM
CAKI-1 renal
  GI50: 10 µM
  TGI: 25.9 µM
CCRF-CEM leukemia
  GI50: 23.2 µM
  TGI: > 100 µM
COLO 205 colon
  GI50: 30.8 µM
  TGI: > 100 µM
DU-145 prostate
  GI50: 8.3 µM
  TGI: 32 µM
HCC-2998 colon
  GI50: 8.43 µM
  TGI: 58.1 µM
HCT-116 colon
  GI50: 3.26 µM
  TGI: 12.1 µM
HCT-15 colon
  GI50: 8.69 µM
  TGI: > 100 µM
HL-60(TB) leukemia
  GI50: 38.6 µM
  TGI: > 100 µM
HOP-62 NSCLC
  GI50: 4.65 µM
  TGI: 14.6 µM
HOP-92 NSCLC
  GI50: 16.3 µM
  TGI: 35.9 µM
HS 578T breast
  GI50: 2.95 µM
  TGI: 13.4 µM
HT29 colon
  GI50: 8.29 µM
  TGI: 25.1 µM
IGROV1 ovarian
  GI50: 21.4 µM
  TGI: 75 µM
K-562 leukemia
  GI50: 11.4 µM
  TGI: 67.2 µM
KM12 colon
  GI50: 9.66 µM
  TGI: > 100 µM
LOX IMVI melanoma
  GI50: 2.44 µM
  TGI: 5.65 µM
MALME-3M melanoma
  GI50: 4.14 µM
  TGI: 19 µM
MCF7 breast
  GI50: 4.36 µM
  TGI: 32 µM
MDA-MB-231 breast
  GI50: 2.69 µM
  TGI: 6.79 µM
MDA-MB-435
  GI50: 13.1 µM
  TGI: > 100 µM
MOLT-4 leukemia
  GI50: 15.5 µM
  TGI: > 100 µM
NCI-H226 lung
  GI50: 12.6 µM
  TGI: 32.4 µM
NCI-H23 lung
  GI50: 7.72 µM
  TGI: 30.7 µM
NCI-H460 lung
  GI50: 8.92 µM
  TGI: 39.5 µM
NCI-H522 lung
  GI50: 13.4 µM
  TGI: 44.3 µM
NCI/ADR-RES ovarian
  GI50: 7.92 µM
  TGI: 43.5 µM
OVCAR-3 ovarian
  GI50: 3.04 µM
  TGI: 7.83 µM
OVCAR-4 ovarian
  GI50: 2.01 µM
  TGI: 5.18 µM
OVCAR-5 ovarian
  GI50: 17.1 µM
  TGI: > 100 µM
OVCAR-8 ovarian
  GI50: 5.35 µM
  TGI: 22 µM
PC-3 prostate
  GI50: 23.3 µM
  TGI: > 100 µM
RPMI-8226 leukemia
  GI50: 5.39 µM
  TGI: 31.2 µM
RXF 393 renal
  GI50: 4.3 µM
  TGI: 17.3 µM
SF-268 CNS
  GI50: 6.23 µM
  TGI: 25.5 µM
SF-295 CNS
  GI50: 13.3 µM
  TGI: 30 µM
SF-539 CNS
  GI50: 1.76 µM
  TGI: 3.67 µM
SK-MEL-2 melanoma
  GI50: 32.3 µM
  TGI: 87.1 µM
SK-MEL-28 melanoma
  GI50: 15.5 µM
  TGI: 76.4 µM
SK-MEL-5 melanoma
  GI50: 15.6 µM
  TGI: 64.8 µM
SK-OV-3 ovarian
  GI50: 14 µM
  TGI: 27 µM
SN12C renal
  GI50: 17.6 µM
  TGI: 63.6 µM
SNB-19 CNS
  GI50: 13.8 µM
  TGI: 67.9 µM
SNB-75 CNS
  GI50: 2.01 µM
  TGI: 6.11 µM
SR leukemia
  GI50: 4.4 µM
  TGI: 58.8 µM
SW-620 colon
  GI50: 16.6 µM
  TGI: > 100 µM
T-47D breast
  GI50: 5.28 µM
  TGI: 22.8 µM
TK-10 renal
  GI50: 11 µM
  TGI: 23.3 µM
U251 CNS
  GI50: 2.35 µM
  TGI: 6.58 µM
UACC-257 melanoma
  GI50: 31.8 µM
  TGI: > 100 µM
UACC-62 melanoma
  GI50: 40.7 µM
  TGI: > 100 µM
UO-31 renal
  GI50: 15.6 µM
  TGI: 33.1 µM

Source: PubChem BioAssay (NCI)
